Residue numbers refer to the chain shown, from its start. Where a SMILES comes first, the peptide text is derived from it.
Columns and labels:
[1] = target: T1, hTAS1R2 + hTAS1R3 R790Q^ex3 (Homo sapiens, UniProt Q7RTX0+Q8TE23, R790Q); test: Calcium response (FLIPR), hTAS1R3 mutant coexpressed with hTAS1R2; type: cell-based; conditions: variant R790Q^ex3; for Emax: read-out: maximal signal (% of wt)
T1 construct: expressed in transfected cells; host or cells: HEK293T cells stably expressing G16Gust44
T1 sequence (Q8TE23 20-839): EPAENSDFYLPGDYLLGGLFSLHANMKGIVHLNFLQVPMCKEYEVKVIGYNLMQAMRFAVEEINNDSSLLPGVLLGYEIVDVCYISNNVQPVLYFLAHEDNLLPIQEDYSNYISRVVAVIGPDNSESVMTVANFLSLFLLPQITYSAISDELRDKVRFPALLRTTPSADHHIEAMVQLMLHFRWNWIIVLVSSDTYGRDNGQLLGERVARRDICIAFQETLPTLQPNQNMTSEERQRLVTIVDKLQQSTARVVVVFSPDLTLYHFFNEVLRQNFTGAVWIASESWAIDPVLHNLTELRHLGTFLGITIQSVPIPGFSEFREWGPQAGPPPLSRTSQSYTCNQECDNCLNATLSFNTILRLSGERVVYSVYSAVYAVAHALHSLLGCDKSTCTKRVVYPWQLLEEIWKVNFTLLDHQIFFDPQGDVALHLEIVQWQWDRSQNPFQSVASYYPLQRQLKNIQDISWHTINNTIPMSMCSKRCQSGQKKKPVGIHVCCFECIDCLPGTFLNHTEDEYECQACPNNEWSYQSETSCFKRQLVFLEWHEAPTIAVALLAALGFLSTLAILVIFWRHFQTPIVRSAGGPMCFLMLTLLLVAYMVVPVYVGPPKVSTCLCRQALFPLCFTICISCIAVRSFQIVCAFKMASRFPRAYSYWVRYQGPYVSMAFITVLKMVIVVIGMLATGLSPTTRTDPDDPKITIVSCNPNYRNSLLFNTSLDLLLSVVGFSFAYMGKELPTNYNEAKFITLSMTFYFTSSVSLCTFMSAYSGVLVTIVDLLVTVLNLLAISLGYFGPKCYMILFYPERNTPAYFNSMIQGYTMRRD
T1 sequence (Q7RTX0 21-852 R790Q): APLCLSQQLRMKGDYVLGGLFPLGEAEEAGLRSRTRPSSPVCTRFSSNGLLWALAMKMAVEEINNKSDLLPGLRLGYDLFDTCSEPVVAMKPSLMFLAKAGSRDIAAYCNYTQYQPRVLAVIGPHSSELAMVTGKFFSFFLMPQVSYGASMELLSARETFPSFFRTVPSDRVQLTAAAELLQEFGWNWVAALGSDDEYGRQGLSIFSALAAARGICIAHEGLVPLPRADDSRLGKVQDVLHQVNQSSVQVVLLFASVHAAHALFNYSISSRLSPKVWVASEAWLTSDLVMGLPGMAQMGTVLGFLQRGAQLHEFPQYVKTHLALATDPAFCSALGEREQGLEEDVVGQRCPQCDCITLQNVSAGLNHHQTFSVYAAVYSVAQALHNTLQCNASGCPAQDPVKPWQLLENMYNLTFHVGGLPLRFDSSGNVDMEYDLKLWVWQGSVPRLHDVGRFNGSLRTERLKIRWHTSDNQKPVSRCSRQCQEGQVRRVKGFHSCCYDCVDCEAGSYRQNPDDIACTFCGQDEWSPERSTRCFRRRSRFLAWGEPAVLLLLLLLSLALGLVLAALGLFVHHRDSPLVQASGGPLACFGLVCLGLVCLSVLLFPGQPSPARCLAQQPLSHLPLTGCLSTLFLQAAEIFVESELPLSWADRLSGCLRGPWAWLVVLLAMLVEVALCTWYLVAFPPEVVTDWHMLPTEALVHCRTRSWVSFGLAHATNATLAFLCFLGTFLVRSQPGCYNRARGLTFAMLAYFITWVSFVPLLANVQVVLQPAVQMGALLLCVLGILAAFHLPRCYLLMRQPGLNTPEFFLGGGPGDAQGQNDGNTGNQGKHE
How it was run: (§1)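 Calcium mobilization was measured by FLIPR in Fluo4-AM-loaded HEK293T cells coexpressing G16Gust44 with the tagged receptor pair. Signals had mock responses removed and were given as ΔF/F.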

[2] = target: T2, hTAS1R2 + hTAS1R3 S640A^3.32 (Homo sapiens, UniProt Q7RTX0+Q8TE23, S640A); test: as above; type: cell-based; conditions: variant S640A^3.32; for Emax: read-out: maximal signal (% of wt)
T2 construct: expressed in transfected cells; host or cells: HEK293T cells stably expressing G16Gust44
T2 sequence (Q8TE23 20-839): T1 sequence (Q8TE23 20-839)
T2 sequence (Q7RTX0 21-852 S640A): T1 sequence (Q7RTX0 21-852 R790Q) with S620A, Q770R
How it was run: as §1

| EC50 [1] | Emax [1] | EC50 [2] | Emax [2] | SMILES |
| --- | --- | --- | --- | --- |
| 100 ± 60 µM | 77 ± 15% | 800 ± 200 µM | 63 ± 18% | COc1ccc(CCC(=O)c2c(O)cc(O[C@@H]3O[C@H](CO)[C@@H](O)[C@H](O)[C@H]3O[C@@H]3O[C@@H](C)[C@H](O)[C@@H](O)[C@H]3O)cc2O)cc1O [NHDC, neohesperidin dihydrochalcone] |
| 900 ± 400 µM | 71 ± 30% | 1400 ± 500 µM | 61 ± 40% | COC(=O)[C@H](Cc1ccccc1)NC(=O)[C@@H](N)CC(=O)O [aspartame] (HELM PEPTIDE1{D.F.[CO[*:1]]}$$$$V2.0) |

Source: article PMC2099433, “The binding site for neohesperidin dihydrochalcone at the human sweet taste receptor” (BMC Structural Biology, 2007)
